These are literature values, as cited in patent publication US5348748A, “Pulsatile once-a-day delivery systems for minocycline” (American Cyanamid Company, priority 1993, dated 1994).

Molecules are shown by their SMILES.

For series [1] the following is noted: taken with food.
In series [2] the test system is wide range of gram-negative and gram-positive bacteria. Particulars: PDR 43rd Ed.

Consider `CN(C)c1ccc(O)c2c1C[C@H]1C[C@H]3[C@H](N(C)C)C(=O)C(C(N)=O)=C(O)[C@@]3(O)C(=O)C1=C2O` [minocycline, 7-dimethylamino-6-deoxy-6-demethyltetracycline], for which the “absorption in the lower gastrointestinal tract in words” value is “reduced absorption in the lower gastrointestinal tract”. In addition, in series [1], the half life is 14 to 16 h. The “susceptibility of organisms in words” value in series [2] was “susceptible”.
